Results on 36 compounds are retold here after patent US20160333006A1, “ARYL LACTA KINASE INHIBITORS” (Bristol-Myers Squibb Company, priority 2014, published 2016).

The structures appear in SMILES notation.

This assay deals with T1, GST-Xa-hAAK1 (Homo sapiens, UniProt Q2M2I8).
T1 construct: made in house
T1 sequence (Q2M2I8 whole entry): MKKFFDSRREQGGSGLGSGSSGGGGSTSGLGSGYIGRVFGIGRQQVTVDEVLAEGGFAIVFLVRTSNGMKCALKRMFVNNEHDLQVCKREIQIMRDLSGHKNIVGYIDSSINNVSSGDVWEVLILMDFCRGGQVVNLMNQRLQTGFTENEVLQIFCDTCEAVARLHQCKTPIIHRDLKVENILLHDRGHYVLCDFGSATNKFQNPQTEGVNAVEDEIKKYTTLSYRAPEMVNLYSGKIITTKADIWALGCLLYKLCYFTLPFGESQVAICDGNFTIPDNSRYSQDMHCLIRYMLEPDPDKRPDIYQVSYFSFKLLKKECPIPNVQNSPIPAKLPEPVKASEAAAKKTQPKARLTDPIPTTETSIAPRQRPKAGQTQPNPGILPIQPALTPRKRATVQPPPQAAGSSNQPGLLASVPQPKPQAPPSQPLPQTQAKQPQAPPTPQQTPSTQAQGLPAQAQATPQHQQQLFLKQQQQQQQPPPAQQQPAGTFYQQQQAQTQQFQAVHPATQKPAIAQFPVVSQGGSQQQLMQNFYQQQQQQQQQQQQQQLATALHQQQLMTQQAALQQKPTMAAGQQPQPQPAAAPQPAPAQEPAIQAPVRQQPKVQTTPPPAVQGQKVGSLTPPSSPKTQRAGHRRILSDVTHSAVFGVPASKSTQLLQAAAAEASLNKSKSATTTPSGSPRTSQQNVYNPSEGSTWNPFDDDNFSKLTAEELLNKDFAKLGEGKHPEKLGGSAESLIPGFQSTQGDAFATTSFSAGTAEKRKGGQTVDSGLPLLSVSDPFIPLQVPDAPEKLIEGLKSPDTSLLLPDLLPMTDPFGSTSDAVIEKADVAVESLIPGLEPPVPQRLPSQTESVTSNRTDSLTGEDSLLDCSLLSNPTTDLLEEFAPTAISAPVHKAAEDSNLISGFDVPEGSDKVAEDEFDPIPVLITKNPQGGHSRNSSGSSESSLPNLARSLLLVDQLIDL
The assay is described as follows: AAK1 kinase assay. Type of assay: biochemical. Particulars: ATP 22 μM; given as IC50 range. How it is done:
The assays were performed in U-bottom 384-well plates. […] The reactions were initiated by the combination of bacterially expressed, GST-Xa-hAAK1 with substrates and test compounds. The reactions were incubated at room temperature for 3 hours and terminated by adding 60 μl of 35 mM EDTA buffer to each sample. The reactions were analyzed on the Caliper LabChip 3000 (Caliper, Hopkinton, Mass.) by electrophoretic separation of the fluorescent substrate and phosphorylated product. […] Compounds were dissolved at 10 mM in dimethylsulfoxide (DMSO) and evaluated at eleven concentrations. IC50 values were derived by non-linear regression analysis.
On to `Cc1nccc2c1c(=O)n(C)c1cc(OCC(N)CC(C)C(F)(F)F)ccc21` (single isomer, unassigned) [Example 87], for which the IC50 lay in the range of 1 to 10 nM.

Consider `Cc1nccc2c1c(=O)n(C)c1cc(OCC(N)CC(C)C(F)(F)F)ccc21` (single isomer, unassigned) [Example 88], for which the IC50 is 1 to 10 nM.

Turning to `Cn1c(=O)c2cnccc2c2ccc(OCC(N)CC(F)(F)F)cc21` (single isomer, unassigned) [Example 135, 8-(2-amino-4,4,4-trifluorobutoxy)-6-methylbenzo[c][2,7]naphthyridin-5(6H)-one], the IC50 is 10 to 100 nM.

In the case of `Cn1c(=O)c2cnccc2c2ccc(OCC(N)CC(F)(F)F)cc21` (single isomer, unassigned) [Example 136, 8-(2-amino-4,4,4-trifluorobutoxy)-6-methylbenzo[c][2,7]naphthyridin-5(6H)-one], the concentration for half-maximal inhibition (IC50) fell in the range of 1 to 10 nM.

For the compound `Cc1cc2c3ccncc3c(=O)n(C)c2cc1OC[C@@H](N)CC(C)C` [Example 4, (S)-8-((2-amino-4-methylpentyl)oxy)-6,9-dimethylbenzo[c][2,7]naphthyridin-5(6H)-one], the IC50 was in the range of 1 to 10 nM.

`CC(C)C[C@H](N)COc1cc2c(cc1C#N)c1ccncc1c(=O)n2C` [Example 5, (S)-8-((2-amino-4-methylpentyl)oxy)-6-methyl-5-oxo-5,6 dihydrobenzo[c][2,7]naphthyridine-9-carbonitrile]: the IC50 fell in the range of 1 to 10 nM.

As for `CC(C)C[C@H](N)COc1c(Cl)cc2c3ccncc3c(=O)n(C)c2c1Cl` [Example 10, (S)-8-((2-amino-4-methylpentyl)oxy)-7,9-dichloro-6-methylbenzo[c][2,7]naphthyridin-5(6H) one], the concentration for half-maximal inhibition (IC50) lay within 10 to 100 nM.

Turning to `Cc1nccc2c1c(=O)n(C)c1cc(OC[C@@H](N)CC(C)C)c(C(F)F)cc21` [Example 27, (S)-8-((2-amino-4-methylpentyl)oxy)-9-(difluoromethyl)-4,6-dimethylbenzo[c][2,7]naphthyridin-5(6H)-one], the IC50 is < 1 nM.

`CC(C)C[C@@H](COc1ccc2c3ccncc3c(=O)n(C)c2c1)N(C)C` [Example 39, (S)-8-((2-(dimethylamino)-4-methylpentyl)oxy)-6-methylbenzo[c][2,7]naphthyridin-5(6H)-one]: the IC50 was in the range of 10 to 100 nM.

In the case of `COc1nccc2c1c(=O)n(C)c1cc(OC[C@@H](N)CC(C)C)ccc21` [Example 42, (S)-8-(2-amino-4-methylpentyloxy)-4-methoxy-6-methylbenzo[c][2,7]naphthyridin-5(6H)-one], the IC50 was 100 to 2000 nM.

On to `CC(C)C[C@H](N)COc1cc2c(cc1Cl)c1ccncc1c(=O)n2C` [Example 43, (S)-8-((2-amino-4-methylpentyl)oxy)-9-chloro-6-methylbenzo[c][2,7]naphthyridin-5(6H)-one], for which the IC50 is 1 to 10 nM.

As for `Cc1nccc2c1c(=O)[nH]c1cc(OC[C@@H](N)CC(C)C)c(Br)cc12` [Example 49, (S)-8-(2-amino-4-methylpentyloxy)-9-bromo-4-methylbenzo[c][2,7]naphthyridin-5(6H)-one], the IC50 lay in the range of 1 to 10 nM.

Turning to `CC(C)C[C@H](N)COc1cc2c(cc1-c1ccc(F)cc1)c1ccncc1c(=O)n2C` [Example 51, (S)-8-((2-amino-4-methylpentyl)oxy)-9-(4-fluorophenyl)-6 methylbenzo[c][2,7]naphthyridin-5(6H)-one], the IC50 was 100 to 2000 nM.

With `CN[C@H](COc1cc2c(cc1C#N)c1ccnc(C)c1c(=O)n2C)CC(C)C` [Example 65, (S)-4,6-dimethyl-8-(4-methyl-2-(methylamino)pentyloxy)-5-oxo-5,6-dihydrobenzo[c][2,7]naphthyridine-9-carbonitrile], the IC50 was < 1 nM.

Turning to `Cc1nccc2c1c(=O)[nH]c1cc(OC[C@@H](N)CC(C)C)ccc12` [Example 77, (S)-8-(2-amino-4-methylpentyloxy)-4-methylbenzo[c][2,7]naphthyridin-5(6H)-one], the IC50 was in the range of 1 to 10 nM.

For `COCCn1c(=O)c2c(C)nccc2c2cc(Cl)c(OC[C@@H](N)CC(C)C)cc21` [Example 79, (S)-8-((2-amino-4-methylpentyl)oxy)-9-chloro-6-(2-methoxyethyl)-4-methylbenzo[c][2,7]naphthyridin-5(6H)-one], the IC50 is 1 to 10 nM.

For `Cc1nccc2c1c(=O)n(C)c1c(F)c(OC[C@@H](N)CC(C)C)ccc21` [Example 81, (S)-8-(2-amino-4-methylpentyloxy)-7-fluoro-4,6-dimethylbenzo[c][2,7]naphthyridin-5(6H)-one], the IC50 was in the range of 100 to 2000 nM.

In the case of `COC(=O)c1cc2c3ccnc(C)c3c(=O)n(C)c2cc1OC[C@@H](N)CC(C)C` [Example 84, (S)-methyl 8-((2-amino-4-methylpentyl)oxy)-4,6-dimethyl-5-oxo-5,6-dihydrobenzo[c][2,7]naphthyridine-9-carboxylate], the half-inhibitory concentration (IC50) lay in the range of 1 to 10 nM.

Turning to `CC(C)C[C@H](N)COc1ccc2c3c(F)cncc3c(=O)n(C)c2c1` [Example 85, (S)-8-((2-amino-4-methylpentyl)oxy)-1-fluoro-6-methylbenzo[c][2,7]naphthyridin-5(6H)-one], the IC50 lay in the range of 10 to 100 nM.

Regarding `Cc1nccc2c1c(=O)n(C)c1cc(OC[C@@H](N)CC(C)C)c(C(N)=O)cc21` [Example 94, (S)-8-((2-amino-4-methylpentyl)oxy)-4,6-dimethyl-5-oxo-5,6-dihydrobenzo[c][2,7]naphthyridine-9-carboxamide], the IC50 was in the range of 10 to 100 nM.

For the compound `COc1cncc2c(=O)n(C)c3cc(OC[C@@H](N)CC(C)C)ccc3c12` [Example 98, (S)-8-((2-amino-4-methylpentyl)oxy)-1-methoxy-6-methylbenzo[c][2,7]naphthyridin-5(6H)-one], the 50% inhibitory concentration (IC50) was 100 to 2000 nM.

`COc1c(OC[C@@H](N)CC(C)C)ccc2c1[nH]c(=O)c1c(C)nccc12` [Example 99, (S)-8-(2-amino-4-methylpentyloxy)-7-methoxy-4-methylbenzo[c][2,7]naphthyridin-5(6H)-one]: the IC50 is 100 to 2000 nM.

Take `COCc1cc2c3ccnc(C)c3c(=O)n(C)c2cc1OC[C@@H](N)CC(C)C` [Example 104, (S)-8-(2-amino-4-methylpentyloxy)-9-(methoxymethyl)-4,6-dimethylbenzo[c][2,7]naphthyridin-5(6H)-one]: the IC50 fell in the range of 10 to 100 nM.

As to `Cc1nccc2c1c(=O)n(C)c1c(F)c(OC[C@@H](N)CC(C)C)c(Cl)cc21` [Example 107, (S)-8-((2-amino-4-methylpentyl)oxy)-9-chloro-7-fluoro-4,6-dimethylbenzo[c][2,7]naphthyridin-5(6H)-one], the IC50 fell in the range of 1 to 10 nM.

For the compound `CC(C)Cc1cc2c3ccncc3c(=O)n(C)c2cc1OC[C@@H](N)CC(C)C` [Example 110, (S)-8-((2-amino-4-methylpentyl)oxy)-9-isobutyl-6-methylbenzo[c][2,7]naphthyridin-5(6H)-one], the IC50 is 10 to 100 nM.

Take `Cn1c(=O)c2cnccc2c2ccc(OCC(N)CCC(F)(F)F)cc21` (stereo not drawn) [Example 111, 8-((2-amino-5,5,5-trifluoropentyl)oxy)-6-methylbenzo[c][2,7]naphthyridin-5(6H)-one]: the IC50 was 1 to 10 nM.

`Cn1c(=O)c2cnccc2c2ccc(OCC(N)CCC(F)(F)F)cc21` (stereo not drawn) [Example 112, 8-((2-amino-5,5,5-trifluoropentyl)oxy)-6-methylbenzo[c][2,7]naphthyridin-5(6H)-one]: the IC50 lay within 1 to 10 nM.

In the case of `Cc1nccc2c1c(=O)n(C)c1cc(OCC(N)CCC(F)(F)F)ccc21` (stereo not drawn) [Example 123, 8-((2-amino-5,5,5-trifluoropentyl)oxy)-4,6-dimethylbenzo[c][2,7]naphthyridin-5(6H)-one], the IC50 was 10 to 100 nM.

Consider `Cc1nccc2c1c(=O)n(C)c1cc(OCC(N)CCC(F)(F)F)c(Cl)cc21` (stereo not drawn) [Example 124, 8-((2-amino-5,5,5-trifluoropentyl)oxy)-9-chloro-4,6-dimethylbenzo[c][2,7]naphthyridin-5(6H)-one], for which the IC50 was < 1 nM.

For the compound `Cc1nccc2c1c(=O)n(C)c1cc(OC[C@@H](N)CC(C)C)c(C3CC3)cc21` [Example 125, (S)-8-((2-amino-4-methylpentyl)oxy)-9-cyclopropyl-4,6-dimethylbenzo[c][2,7]naphthyridin-5(6H)-one], the IC50 fell in the range of 1 to 10 nM.

Consider `Cc1nccc2c1c(=O)n(C)c1cc(OCC(N)CCC(F)(F)F)c(Br)cc21` (stereo not drawn) [Example 128, 8-((2-amino-5,5,5-trifluoropentyl)oxy)-9-bromo-4,6-dimethylbenzo[c][2,7]naphthyridin-5(6H)-one], for which the 50% inhibitory concentration (IC50) is < 1 nM.

Regarding `Cc1nccc2c1c(=O)n(C)c1cc(OC[C@@H](N)CC(C)C)c(C(C)C)cc21` [Example 130, (S)-8-((2-amino-4-methylpentyl)oxy)-9-isopropyl-4,6-dimethylbenzo[c][2,7]naphthyridin-5(6H)-one], the IC50 lay in the range of 10 to 100 nM.

Consider `COCCn1c(=O)c2c(C)nccc2c2cc(Br)c(OC[C@@H](N)CC(C)C)cc21` [Example 131, (S)-8-((2-amino-4-methylpentyl)oxy)-9-bromo-6-(2-methoxyethyl)-4-methylbenzo[c][2,7]naphthyridin-5(6H)-one], for which the 50% inhibitory concentration (IC50) is 10 to 100 nM.

Regarding `Cc1nccc2c1c(=O)n(CCO)c1cc(OC[C@@H](N)CC(C)C)c(Cl)cc21` [Example 132, (S)-8-((2-amino-4-methylpentyl)oxy)-9-chloro-6-(2-hydroxyethyl)-4-methylbenzo[c][2,7]naphthyridin-5(6H)-one], the IC50 is < 1 nM.

On to `Cc1nccc2c1c(=O)n(C)c1c(F)c(OC[C@@H](N)CC(C)C)c(Br)cc21` [Example 134, (S)-8-((2-amino-4-methylpentyl)oxy)-9-bromo-7-fluoro-4,6-dimethylbenzo[c][2,7]naphthyridin-5(6H)-one], for which the IC50 lay within 10 to 100 nM.

Take `Cc1nccc2c1c(=O)n(C)c1cc(OCC(N)CC(F)(F)F)c(Br)cc21` (stereo not drawn) [Example 137, 8-(2-amino-4,4,4-trifluorobutoxy)-9-bromo-4,6-dimethylbenzo[c][2,7]naphthyridin-5(6H)-one]: the IC50 was in the range of 1 to 10 nM.

One may read the IC50 as the concentration needed to halve the response being measured.
